Measured values as given in ChEMBL document CHEMBL4373746, “Structural attributes influencing unbound tissue distribution” (Eur J Med Chem, 2020).

Assays:
[1] = Fraction unbound in Wistar Han rat skeletal muscle at 2 uM incubated for 6 hrs by equilibrium dialysis method
[2] = Drug concentration in total skeletal muscle in Wistar Han rat at 1 to 2 mg/kg, iv infused for 10 to 20 hrs by LC-MS/MS analysis; settings: in vivo
[3] = Drug concentration in total white adipose tissue in Wistar Han rat at 1 to 2 mg/kg, iv infused for 10 to 20 hrs by LC-MS/MS analysis; settings: in vivo
[4] = Drug concentration in total brain in Wistar Han rat at 1 to 2 mg/kg, iv infused for 10 to 20 hrs by LC-MS/MS analysis; settings: in vivo
[5] = Drug concentration in total liver in Wistar Han rat at 1 to 2 mg/kg, iv infused for 10 to 20 hrs by LC-MS/MS analysis; settings: in vivo
[6] = Unbound tissue partition coefficient, ratio of drug level in heart to plasma in Wistar Han rat at 1 to 2 mg/kg, iv infused for 10 to 20 hrs by LC-MS/MS analysis
[7] = Fraction unbound in Wistar Han rat white adipose tissue at 2 uM incubated for 6 hrs by equilibrium dialysis method
[8] = Total plasma concentration in Wistar Han rat at 1 to 2 mg/kg, iv infused for 10 to 20 hrs by LC-MS/MS analysis; settings: in vivo
[9] = Fraction unbound in Wistar Han rat heart at 2 uM incubated for 6 hrs by equilibrium dialysis method
[10] = Unbound tissue partition coefficient, ratio of drug level in liver to plasma in Wistar Han rat at 1 to 2 mg/kg, iv infused for 10 to 20 hrs by LC-MS/MS analysis
[11] = Apparent permeability of the compound across dog RRCK cells by MDCK-LE assay
[12] = Drug concentration in total heart in Wistar Han rat at 1 to 2 mg/kg, iv infused for 10 to 20 hrs by LC-MS/MS analysis; settings: in vivo
[13] = Fraction unbound in Wistar Han rat liver at 2 uM incubated for 6 hrs by equilibrium dialysis method
[14] = Fraction unbound in Wistar Han rat plasma at 2 uM incubated for 6 hrs by equilibrium dialysis method
[15] = Unbound tissue partition coefficient, ratio of drug level in skeletal muscle to plasma in Wistar Han rat at 1 to 2 mg/kg, iv infused for 10 to 20 hrs by LC-MS/MS analysis
[16] = Unbound tissue partition coefficient, ratio of drug level in brain to plasma in Wistar Han rat at 1 to 2 mg/kg, iv infused for 10 to 20 hrs by LC-MS/MS analysis
[17] = Fraction unbound in Wistar Han rat brain at 2 uM incubated for 6 hrs by equilibrium dialysis method
[18] = Unbound tissue partition coefficient, ratio of drug level in adipose to plasma in Wistar Han rat at 1 to 2 mg/kg, iv infused for 10 to 20 hrs by LC-MS/MS analysis
[19] = Unbound tissue partition coefficient, ratio of drug level in brain to plasma in mouse administered as single dose; assay type: ADME; settings: read-out: K(p,uu,brain)

Row | Structure (SMILES) | fraction unbound at 6 h, 2 µM [1] | Ct [2] | Ct [3] | Ct [4] | Ct [5] | Kp uu ([6]; heart/plasma) | fraction unbound at 6 h, 2 µM [7] | Cp [8] | fraction unbound at 6 h, 2 µM [9] | Kp uu ([10]; liver/plasma) | Papp [11] | Ct [12] | fraction unbound at 6 h, 2 µM [13] | fraction unbound at 6 h, 2 µM [14] | Kp uu ([15]; skeletal muscle/plasma) | Kp uu ([16]; brain/plasma) | fraction unbound at 6 h, 2 µM [17] | Kp uu ([18]; adipose/plasma) | also measured
1 | CS(=O)(=O)c1cccc(C(=O)O)c1 | 0.865 | 14 ng/mL | 0.77 ng/mL | 1 ng/mL | 190 ng/mL | 0.39 | 0.516 | 130 ng/mL | 0.422 | 2.4 | 12 ×10⁻⁶ cm/s | 40 ng/mL | 0.628 | 0.373 | 0.27 | 0.02 | 1 | 0.024 | 
2 | O=C(O)c1nc2cc(Cl)c(Cl)cc2nc1O [6,7-DICHLORO-3-HYDROXY-2-QUINOXALINECARBOXYLIC ACID] | 0.435 | 5.3 ng/mL | 0.77 ng/mL | 0.38 ng/mL | 17 ng/mL | 1.8 | 0.476 | 56 ng/mL | 0.284 | 2 | 1.3 ×10⁻⁶ cm/s | 12 ng/mL | 0.24 | 0.0414 | 1.1 | 0.0018 | 1 | 0.024 | 
3 | C[C@H](CN1CCOCC1)n1/c(=N\C(N)=O)[nH]c2cc(/C=C3\c4ccccc4COc4cc(F)ccc43)ccc21 [LY2623091] | 5.36e-05 | 240 ng/mL | 410 ng/mL | 31 ng/mL | 730 ng/mL | 0.68 | 0.000192 | 240 ng/mL | 0.000104 | 5.6 | 0.1 ×10⁻⁶ cm/s | 620 ng/mL | 0.000706 | 0.00041 | 0.14 | 0.028 | 8.38e-05 | 0.87 | 
4 | CCC[C@H](Oc1cc(C)c(-n2cc(C(F)(F)F)cn2)c(C)c1)c1ccc(C(=O)NCCC(=O)O)cc1 [PF-06291874] | 0.00926 | 58 ng/mL | 18 ng/mL | 5.8 ng/mL | 2400 ng/mL | 0.91 | 0.0593 | 410 ng/mL | 0.00722 | 13 | 8.5 ×10⁻⁶ cm/s | 200 ng/mL | 0.00845 | 0.00392 | 0.33 | 0.026 | 0.00714 | 0.69 | 
5 | COc1cc2nc(N3CCN(C(=O)c4ccco4)CC3)nc(N)c2cc1OC [PRAZOSIN] |  | 100 ng/mL | 33 ng/mL | 11 ng/mL | 640 ng/mL |  |  | 40 ng/mL |  |  | 26 ×10⁻⁶ cm/s | 180 ng/mL |  |  |  |  |  |  | Kp uu ([6]; other tissue): 2.4; Kp uu ([10]; other tissue): 2.8; Kp uu [19]: 0.059; Kp uu ([15]; other tissue): 0.68; Kp uu ([16]; brain): 0.11; Kp uu ([18]; other tissue): 1.2
6 | CC(C)c1nc(CN(C)C(=O)N[C@H](C(=O)N[C@@H](Cc2ccccc2)C[C@H](O)[C@H](Cc2ccccc2)NC(=O)OCc2cncs2)C(C)C)cs1 [RITONAVIR] |  |  |  |  |  |  |  |  |  |  | 9.9 ×10⁻⁶ cm/s |  |  |  |  |  |  |  | Ct ([2]; Wistar Han): 42 ng/mL; Ct ([3]; Wistar Han): 31 ng/mL; Ct ([4]; Wistar Han): 0.38 ng/mL; Ct ([5]; Wistar Han): 370 ng/mL; Kp uu ([6]; other tissue): 9.6; Cp ([8]; Wistar Han): 27 ng/mL; Kp uu ([10]; other tissue): 1.2; Kp uu [19]: 0.019; Ct ([12]; Wistar Han): 170 ng/mL; Kp uu ([15]; other tissue): 0.56; Kp uu ([16]; brain): 0.0018; Kp uu ([18]; other tissue): 9.6
7 | CCCn1cnc(C[C@H](CCCN)C(=O)O)c1 [UK-396,082] | 0.676 | 160 ng/mL | 30 ng/mL | 87 ng/mL | 290 ng/mL | 0.39 | 0.541 | 160 ng/mL | 0.237 | 0.63 | 0.27 ×10⁻⁶ cm/s | 190 ng/mL | 0.237 | 0.686 | 0.99 | 0.19 | 0.239 | 0.14 | 
